Data set [1] in a line: Tumor tissue distribution assay in MC38-PD-L1 tumor-bearing mice. The class given is in vivo, B-hPD-1/hPD-L1 humanized mice. The conditions noted are these: 50 mg/kg oral once/day. The source says: 16 B-hPD-1/hPD-L1 humanized female mice, aged 6-8 weeks were purchased from Biocytogen Jiangsu Gene Biotechnology Co., Ltd. After 1 week of adaptation, the mice were subcutaneously inoculated with MC38-PD-L1 cells at 2×10^6 cells/site. After the tumor grew to about […], the mice were divided into 4 groups, 4 mice in each group. The test compounds were formulated in a vehicle containing 5% DMSO, 60% PEG400 and 35% purified water, including I-1 and 3 control molecules Example 17, Compound 14 (INCB086550), and Example 180. The compounds were orally administered at 50 mg/kg, once/day. The blood and tumor tissue were collected 4 h and 24 h after administration on the 18th day. A certain amount of tissue was weighed, and added with phosphate-buffered saline (PBS) solution for homogenization. After the sample was processed, it was analyzed by LC-MS/MS to determine the concentration of the compound in plasma and tissue.

Data set [2] in a line: Pharmacokinetic assay after repeated oral administration. As to conditions: female, B-hPD-1/hPD-L1, mouse; plasma, 50 mg/kg oral once a day, after administration on the 18th day. The format is in vivo, B-hPD-1/hPD-L1 mice. How it is done:
Twenty-four female B-hPD-1/hPD-L1 mice aged 6-8 weeks were purchased from Biocytogen Jiangsu Gene Biotechnology Co., Ltd. The mice were randomly divided into 4 groups, 6 mice in each group. The test compounds were prepared in a vehicle containing 5% DMSO, 60% PEG400 and 35% purified water, including I-1 and 3 control molecules Example 17, Compound 14 (INCB086550), and Example 180. The compounds were administered orally at 50 mg/kg, once a day. The blood was collected alternately through the fundus venous plexus after the administration on the 18th day. The blood collection time points were 15 min, 30 min, 1 h, 2 h, 4 h, 8h, 24 h and 32h. About 0.1 mL of blood was collected in a centrifuge tube (anticoagulated with sodium heparin), and centrifuged at 5000 rpm for 5 min. Then the plasma was separated, and frozen at −20° C. for later detection. After the plasma samples were processed, the concentration of the compounds in the plasma was determined by liquid chromatography-mass spectrometry (LC-MS/MS). The pharmacokinetic parameters were calculated using Phoenix WinNonlin 7.0.

Data set [3] deals with PD-1/PD-L1-mediated T cell activation inhibitory signal. Kind of data set: CHO-PD-L1-CD3L / Jurkat-PD-1-NFAT co-culture luciferase reporter assay. The format is cell-based. The conditions noted are these: Homo sapiens, co-culture 6 h, read-out: EC50 blocking PD-1/PD-L1-mediated T cell activation inhibitory signal. The procedure: In order to detect the effect of the interaction between PD-1 and PD-L1 on T cell activation signals in the immune response, CHO-PD-L1-CD3L cells stably expressing human PD-L1 molecules and anti-CD3 single-chain antibody (ScFv) and Jurkat-PD-1-NFAT cells stably expressing human PD-1 molecule and NFAT reporter gene were constructed. When the two kinds of cells were co-incubated, the binding of anti-CD3ScFv on the surface of CHO cells and the membrane CD3 molecules of Jurkat cells would transmit an activation signal to Jurkat cells, but simultaneously, the binding of PD-L1 on the surface of CHO cells and PD-1 molecules on the surface of Jurkat cells would transmit an inhibitory signal inward to prevent expression of the luciferase reporter gene. When immune checkpoint antibodies or small molecule inhibitors were added, the binding of PD-1 and PD-L1 was blocked, the NFAT pathway activated by T cell activation signal mediated by cross-linking of CD3ScFv antibody and CD3 was no longer affected by the inhibitory signal, and the downstream luciferase reporter gene started to be expressed. A chemiluminescent signal proportional to reporter gene activation was detected by adding a catalytic substrate.
CHO-PD-L1-CD3L cells expressing human PD-L1 molecule and anti-CD3 single-chain antibody (ScFv) and Jurkat-PD-1-NFAT cells stably expressing human PD-1 molecule and NFAT reporter gene were independently constructed and provided by Dr. Chen Bo (KeyMed Bioscience (Chengdu) Co., Ltd.). Puromycin (Cat #540411) and Hygromycin B (Cat #V900372) for stable culture of transfected cells were purchased from Sigma, PMA (Cat #P1585) was purchased from Sigma, anti-human PD-L1 antibody (Cat #GMP-A066) was purchased from Novoprotein Company. Luciferase substrate solution (Cat #E6485) and luciferase-specific cell lysis solution 5× (Cat #E1531) were purchased from Promega. Fluorescence detection instrument Tecan (Spark 10M) was purchased from Switzerland Tecan Company.
(1) The day before the experiment, 100 μL of CHO-PD-L1-CD3L cells were inoculated in each well of a 96-well cell culture plate (about 4×10^4 cells/well) with a medium of DMEM/F12 containing 10% FBS, 8 μg/mL puromycin and 200 μg/mL hygromycin B, and cultured overnight at 37° C.
(2) The test compounds were diluted with 0.1% PBST into different concentration gradients, added into 96-well plates, and pre-incubated for 30 min. Jurkat-PD-1-NFAT cell count was adjusted to 2×10^5 cells/mL with the RPMI 1640 complete medium containing 10% FBS, […]8 μg/mL puromycin and 200 μg/mL hygromycin B. 100 ng/mL PMA (the stock solution was prepared with DMSO to a concentration of 10 mg/mL) was added to amplify T cell activation signal. 100 μL of the above Jurkat-PD-1-NFAT cells was added to each well of the 96-well plate for co-culture.
(3) When detecting the reaction, a control group was provided, including a solvent control without adding test compounds and a positive control with addition of anti-human PD-1 antibody as the experimental system. All detections were performed with duplicates.
(4) After continuous incubation at 37° C. for 6 h, 40 μL of 5× cell lysate was directly added, and mixed well. The plate was placed at room temperature for 10 min to completely lyse the cells. 50 μL of the lysed cell solution was transferred to a fluorescence detection plate, and added with 30 μL of luciferase substrate solution. The chemiluminescence detection program on the fluorescence detector was immediately selected for detection.
(5) The inhibition rate of T cell activation signal at the cellular level of the test compounds was calculated as follows: Inhibition rate of T cell activation signal (%)=(the original value of chemiluminescence in the detection well−solvent control)/(the highest original value of chemiluminescence detected in the compound detection well−solvent control)×100%. […]
On the technique in general: In a reporter assay the amount or activity of a reporter protein is the signal.

Consider `[2H]C([2H])([2H])OCC12CCC(CCN3CCc4c(nc(C(=O)Nc5cccc(-c6cccc(NC(=O)c7nc8c(n7C)CCN(CCC79CCC(C(=O)O)(CC7)C9)C8)c6Cl)c5Cl)n4C)C3)(CC1)C2` [Compound I-1, 4-(2-(2-((2,2′-dichloro-3′-(5-(2-(4-((methoxy-d3)methyl)bicyclo[2.2.1]heptane-1-yl)ethyl)-1-methyl-4,5,6,7-tetrahydro-1H-imidazo[4,5-c]pyridine-2-carboxamido)-[1,1′-biphenyl]-3-yl)carbamoyl)-1-methyl-1,4,6,7-tetrahydro-5H-imidazo[4,5-c]pyridin-5-yl)ethyl)bicyclo[2.2.1]heptane-1-carboxylic acid], for which the “Ratio of I-1 to control molecule (tumor tissue concentration)” value in data set [1] (4 h after administration on the 18th day) came out at 1.0. In addition, in data set [1] (24 h after administration on the 18th day), the “Ratio of I-1 to control molecule (tumor tissue concentration)” value amounted to 1.0. This compound also gave a concentration at 4 h in data set [1] (female, B-hPD-1/hPD-L1 humanized, mouse, tumor tissue, 4 h after administration on the 18th day) of 39200 ng/g. The compound also registered a concentration at 24 h in data set [1] (female, B-hPD-1/hPD-L1 humanized, mouse, tumor tissue, 24 h after administration on the 18th day) of 27200 ng/g. Further, in data set [2], the exposure AUC(0-t) – broadly, the area under the concentration-time curve up to a stated or last time point – was 123 µg·h/mL; the MRT – broadly, the average time that molecules of a dose stay in the body – turned out to be 13.5 h; the half-life (as a rule, the time in which the quantity being followed falls by half) is 10.3 h. Besides, the EC50 in data set [3] worked out at 0.0138 µM.
As to `[2H]C([2H])([2H])OCC12CCC(CCN3CCc4c(nc(C(=O)Nc5cccc(-c6cccc(NC(=O)c7nc8c(n7C([2H])([2H])[2H])CCN(CCC79CCC(C(=O)O)(CC7)C9)C8)c6C)c5Cl)n4C([2H])([2H])[2H])C3)(CC1)C2` [Compound I-11, 4-(2-(2-((2′-chloro-3′-(5-(2-(4-((methoxy-d3)methyl)bicyclo[2.2.1]heptane-1-yl)ethyl)-1-(methyl-d3)-4,5,6,7-tetrahydro-1H-imidazo[4,5-c]pyridine-2-carboxamido)-2-methyl-[1,1′-biphenyl]-3-yl)carbamoyl)-1-(methyl-d3)-1,4,6,7-tetrahydro-5H-imidazo[4,5-c]pyridin-5-yl)ethyl)bicyclo[2.2.1]heptane-1-carboxylic acid], the EC50 in data set [3] was found to be 0.0584 µM.
The same measure, in the same setting: with `[2H]C([2H])([2H])n1c(C(=O)Nc2cccc(-c3cccc(NC(=O)c4nc5c(n4C([2H])([2H])[2H])CCN(CCC46CCC(COC)(CC4)C6)C5)c3Cl)c2C)nc2c1CCN(CCC13CCC(C(=O)O)(CC1)C3)C2` [Compound I-12, 4-(2-(2-((2′-chloro-3′-(5-(2-(4-(methoxymethyl)bicyclo[2.2.1]heptane-1-yl)ethyl)-1-(methyl-d3)-4,5,6,7-tetrahydro-1H-imidazo[4,5-c]pyridine-2-carboxamido)-2-methyl-[1,1′-biphenyl]-3-yl)carbamoyl)-1-(methyl-d3)-1,4,6,7-tetrahydro-5H-imidazo[4,5-c]pyridin-5-yl)ethyl)bicyclo [2.2.1]heptane-1-carboxylic acid] the figure was 0.0479 µM; with `[2H]c1c([2H])c(NC(=O)c2nc3c(n2C([2H])([2H])[2H])CCN(CCC24CCC(COC([2H])([2H])[2H])(CC2)C4)C3)c(Cl)c(-c2c([2H])c([2H])c([2H])c(NC(=O)c3nc4c(n3C([2H])([2H])[2H])CCN(CCC35CCC(C(=O)O)(CC3)C5)C4)c2Cl)c1[2H]` [Compound I-13, 4-(2-(2-((2,2′-dichloro-3′-(5-(2-(4-((methoxy-d3)methyl)bicyclo[2.2.1]heptane-1-yl)ethyl)-1-(methyl-d3)-4,5,6,7-tetrahydro-1H-imidazo[4,5-c]pyridine-2-carboxamido)-[1,1′-biphenyl]-3-yl-4,4′, 5,5′,6,6′-d6)carbamoyl)-1-(methyl-d3)-1,4,6,7-tetrahydro-5H-imidazo[4,5-c]pyridin-5-yl)ethyl)bicyclo[2.2.1]heptane-1-carboxylic acid], 0.0262 µM.
